Test results taken from patent US10722501B2 (BAYER AKTIENGESELLSCHAFT, priority 2016, dated 2020).

These compounds were tested against T1, recombinant full-length human prolyl endopeptidase (PREP) (Homo sapiens, UniProt P48147) (assay: Biochemical human prolyl endopeptidase (PREP) assay with fluorescently labelled substrate). Settings: substrate Z-Gly-Pro-AMC 50 μM, 32° C., 60 min; some as mean values from multiple independent determinations.
T1 construct: To recombinant full-length human prolyl endopeptidase (PREP, R&D-Systems, 4308-SE); purchased R&D-Systems 4308-SE
T1 sequence (P48147 1-710): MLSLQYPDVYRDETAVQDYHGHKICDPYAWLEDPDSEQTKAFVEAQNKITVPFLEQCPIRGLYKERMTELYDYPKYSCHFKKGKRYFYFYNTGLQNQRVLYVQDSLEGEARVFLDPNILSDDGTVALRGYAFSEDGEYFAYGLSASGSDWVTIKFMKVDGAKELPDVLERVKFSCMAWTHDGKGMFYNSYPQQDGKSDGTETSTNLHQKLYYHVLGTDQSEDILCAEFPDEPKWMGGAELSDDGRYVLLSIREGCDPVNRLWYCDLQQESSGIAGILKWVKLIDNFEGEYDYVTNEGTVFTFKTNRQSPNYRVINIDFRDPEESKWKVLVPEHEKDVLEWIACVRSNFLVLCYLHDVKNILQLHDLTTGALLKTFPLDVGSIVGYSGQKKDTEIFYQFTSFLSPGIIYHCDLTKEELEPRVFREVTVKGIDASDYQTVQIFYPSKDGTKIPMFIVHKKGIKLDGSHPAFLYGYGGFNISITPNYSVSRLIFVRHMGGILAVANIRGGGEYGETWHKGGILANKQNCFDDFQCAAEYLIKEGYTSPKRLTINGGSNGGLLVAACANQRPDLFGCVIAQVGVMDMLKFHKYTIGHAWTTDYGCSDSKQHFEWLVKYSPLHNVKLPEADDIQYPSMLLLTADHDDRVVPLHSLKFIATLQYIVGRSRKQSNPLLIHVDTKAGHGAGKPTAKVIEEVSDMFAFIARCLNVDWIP
Procedure, shortened: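 Initial rates of fluorescence increase from 50 μM Z-Gly-Pro-AMC cleavage (ex 360/em 465 nm, 60 min, 32° C) give percent PREP activity versus no-compound control, and IC50 is interpolated. Enzyme used at 0.4 nM (final, example) in Tris pH 7.5 with EDTA, GSH, BSA and Brij-35; compounds span 1 nM to 30 μM.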
With `O=C([C@@H]1CCCc2nn(Cc3ccc(C(F)(F)F)c(F)c3)c(=O)n21)N1CCC(F)(F)C1` [Example 470, (5S)-5-[(3,3-Difluoropyrrolidin-1-yl)carbonyl]-2-[3-fluoro-4-(trifluoromethyl)benzyl]-5,6,7,8-tetrahydro[1,2,4]triazolo[4,3-a]pyridin-3(2H)-one] the IC50 was 0.82 nM. Work on `O=C([C@@H]1CCCc2nn(Cc3ccc(C(F)(F)F)c(F)c3)c(=O)n21)N1CC[C@H](F)C1` [Example 471, (5S)-5-{[(3S)-3-Fluoropyrrolidin-1-yl]carbonyl}-2-[3-fluoro-4-(trifluoromethyl)benzyl]-5,6,7,8-tetrahydro[1,2,4]triazolo[4,3-a]pyridin-3(2H)-one] yielded an IC50 of 0.425 nM. For `O=C([C@@H]1CCCc2nn(Cc3ccc(C(F)(F)F)c(F)c3)c(=O)n21)N1C[C@@H](F)[C@@H](F)C1` [Example 472, (5S)-5-{[(3R,4S)-3,4-Difluoropyrrolidin-1-yl]carbonyl}-2-[3-fluoro-4-(trifluoromethyl)benzyl]-5,6,7,8-tetrahydro[1,2,4]triazolo[4,3-a]pyridin-3(2H)-one], the IC50 was 0.245 nM. With `O=C([C@@H]1CCCc2nn(Cc3ccc(C(F)(F)F)c(F)c3)c(=O)n21)N1CC(F)C1` [Example 473, (5S)-5-[(3-Fluoroazetidin-1-yl)carbonyl]-2-[3-fluoro-4-(trifluoromethyl)benzyl]-5,6,7,8-tetrahydro[1,2,4]triazolo[4,3-a]pyridin-3(2H)-one] the IC50 was 0.17 nM. `O=C([C@@H]1CCCc2nn(Cc3ccc(F)cc3Cl)c(=O)n21)N1C[C@@H](F)[C@@H](F)C1` [Example 474, (5S)-2-(2-Chloro-4-fluorobenzyl)-5-{[(3R,4S)-3,4-difluoropyrrolidin-1-yl]carbonyl}-5,6,7,8-tetrahydro[1,2,4]triazolo[4,3-a]pyridin-3(2H)-one] gave an IC50 of 0.36 nM. `O=C([C@@H]1CCCc2nn(Cc3ccc(F)cc3Cl)c(=O)n21)N1CC[C@H](F)C1` [Example 475, (5S)-2-(2-Chloro-4-fluorobenzyl)-5-{[(3S)-3-fluoropyrrolidin-1-yl]carbonyl}-5,6,7,8-tetrahydro[1,2,4]triazolo[4,3-a]pyridin-3(2H)-one] gave an IC50 of 0.33 nM. In the case of `O=C([C@@H]1CCCc2nn(Cc3ccc(F)cc3Cl)c(=O)n21)N1CC(F)C1` [Example 476, (5S)-2-(2-Chloro-4-fluorobenzyl)-5-[(3-fluoroazetidin-1-yl)carbonyl]-5,6,7,8-tetrahydro[1,2,4]triazolo[4,3-a]pyridin-3(2H)-one], the IC50 is reported as 0.78 nM. For `O=C([C@@H]1CCCc2nn(Cc3ccc(F)cc3Cl)c(=O)n21)N1CCC(F)(F)C1` [Example 477, (5S)-2-(2-Chloro-4-fluorobenzyl)-5-[(3,3-difluoropyrrolidin-1-yl)carbonyl]-5,6,7,8-tetrahydro[1,2,4]triazolo[4,3-a]pyridin-3(2H)-one], the IC50 was 0.21 nM. `O=C([C@@H]1CCCc2nn(Cc3ccnc(C(F)(F)F)c3F)c(=O)n21)N1CC[C@@H](F)C1` [Example 478, (5S)-5-{[(3R)-3-Fluoropyrrolidin-1-yl]carbonyl}-2-{[3-fluoro-2-(trifluoromethyl)pyridin-4-yl]methyl}-5,6,7,8-tetrahydro[1,2,4]triazolo[4,3-a]pyridin-3(2H)-one] was tested, and the IC50 was 2.65 nM. `O=C([C@@H]1CCCc2nn(Cc3ccnc(C(F)(F)F)c3F)c(=O)n21)N1CC[C@H](O)C1` [Example 479, (5S)-2-{[3-Fluoro-2-(trifluoromethyl)pyridin-4-yl]methyl}-5-{[(3S)-3-hydroxypyrrolidin-1-yl]carbonyl}-5,6,7,8-tetrahydro[1,2,4]triazolo[4,3-a]pyridin-3(2H)-one] gave an IC50 of 25 nM. In the case of `O=C([C@@H]1CCCc2nn(Cc3ccnc(C(F)(F)F)c3F)c(=O)n21)N1C[C@@H](F)[C@@H](F)C1` [Example 480, (5S)-5-{[(3R,4S)-3,4-Difluoropyrrolidin-1-yl]carbonyl}-2-{[3-fluoro-2-(trifluoromethyl)pyridin-4-yl]methyl}-5,6,7,8-tetrahydro[1,2,4]triazolo[4,3-a]pyridin-3(2H)-one], the IC50 is reported as 0.52 nM.
